Measurements as given in paper PMC6934184, “Selective DNA-PKcs inhibition extends the therapeutic index of localized radiotherapy and chemotherapy” (The Journal of Clinical Investigation, 2019).

Molecular target: T1, STK22B (TSSK2) (Homo sapiens, UniProt Q96PF2)
T1 construct: purchased Thermo Fisher Scientific (Life Technologies) SelectScreen
Test: SelectScreen Z'LYTE
Format: biochemical
How it was run: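 Percent values come from Thermo SelectScreen profiling of NU5455, combining activity and binding assays. CSF1R was run in Z'LYTE format at Km app ATP, and CAMK1 in Adapta format with ATP listed at 10.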

T1 sequence (Q96PF2 whole entry): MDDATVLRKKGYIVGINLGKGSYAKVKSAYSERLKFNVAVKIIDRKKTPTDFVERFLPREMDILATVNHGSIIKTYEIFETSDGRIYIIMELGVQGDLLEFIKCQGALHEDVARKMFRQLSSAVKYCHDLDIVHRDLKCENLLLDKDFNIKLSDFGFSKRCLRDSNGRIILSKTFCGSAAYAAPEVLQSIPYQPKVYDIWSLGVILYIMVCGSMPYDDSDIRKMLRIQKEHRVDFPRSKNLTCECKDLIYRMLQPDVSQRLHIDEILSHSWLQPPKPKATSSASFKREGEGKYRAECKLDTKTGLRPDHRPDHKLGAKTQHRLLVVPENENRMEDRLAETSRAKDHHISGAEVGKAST

Which inhibition at 1 µM does the source give for `CN(C(=O)CN1CCOCC1)c1ccc2sc3c(-c4cccc5c(=O)cc(N6CC7CCC(C6)O7)oc45)cccc3c2c1` [NU5455] here?
The inhibition at 1 µM was 2.8%.
